Source: US20240067657A1, “AMIDO-SUBSTITUTED PYRIDYL COMPOUNDS AND METHODS OF USE THEREOF FOR THE TREATMENT OF HERPESVIRUSES” (Merck Sharp & Dohme LLC, priority 2020, published 2024)
Where two headings read alike, the source gives them in different places.

Experiments:
[1] = molecular target: T1, Human cytomegalovirus DNA polymerase (Human cytomegalovirus, UniProt P08546); test: HCMV polymerase assay (AlphaLISA, IC50); format: biochemical; details: polymerase assay of Example 190
T1 construct: made in house; host or cells: SF21 insect cells (baculovirus vector)
T1 sequence (P08546 whole entry): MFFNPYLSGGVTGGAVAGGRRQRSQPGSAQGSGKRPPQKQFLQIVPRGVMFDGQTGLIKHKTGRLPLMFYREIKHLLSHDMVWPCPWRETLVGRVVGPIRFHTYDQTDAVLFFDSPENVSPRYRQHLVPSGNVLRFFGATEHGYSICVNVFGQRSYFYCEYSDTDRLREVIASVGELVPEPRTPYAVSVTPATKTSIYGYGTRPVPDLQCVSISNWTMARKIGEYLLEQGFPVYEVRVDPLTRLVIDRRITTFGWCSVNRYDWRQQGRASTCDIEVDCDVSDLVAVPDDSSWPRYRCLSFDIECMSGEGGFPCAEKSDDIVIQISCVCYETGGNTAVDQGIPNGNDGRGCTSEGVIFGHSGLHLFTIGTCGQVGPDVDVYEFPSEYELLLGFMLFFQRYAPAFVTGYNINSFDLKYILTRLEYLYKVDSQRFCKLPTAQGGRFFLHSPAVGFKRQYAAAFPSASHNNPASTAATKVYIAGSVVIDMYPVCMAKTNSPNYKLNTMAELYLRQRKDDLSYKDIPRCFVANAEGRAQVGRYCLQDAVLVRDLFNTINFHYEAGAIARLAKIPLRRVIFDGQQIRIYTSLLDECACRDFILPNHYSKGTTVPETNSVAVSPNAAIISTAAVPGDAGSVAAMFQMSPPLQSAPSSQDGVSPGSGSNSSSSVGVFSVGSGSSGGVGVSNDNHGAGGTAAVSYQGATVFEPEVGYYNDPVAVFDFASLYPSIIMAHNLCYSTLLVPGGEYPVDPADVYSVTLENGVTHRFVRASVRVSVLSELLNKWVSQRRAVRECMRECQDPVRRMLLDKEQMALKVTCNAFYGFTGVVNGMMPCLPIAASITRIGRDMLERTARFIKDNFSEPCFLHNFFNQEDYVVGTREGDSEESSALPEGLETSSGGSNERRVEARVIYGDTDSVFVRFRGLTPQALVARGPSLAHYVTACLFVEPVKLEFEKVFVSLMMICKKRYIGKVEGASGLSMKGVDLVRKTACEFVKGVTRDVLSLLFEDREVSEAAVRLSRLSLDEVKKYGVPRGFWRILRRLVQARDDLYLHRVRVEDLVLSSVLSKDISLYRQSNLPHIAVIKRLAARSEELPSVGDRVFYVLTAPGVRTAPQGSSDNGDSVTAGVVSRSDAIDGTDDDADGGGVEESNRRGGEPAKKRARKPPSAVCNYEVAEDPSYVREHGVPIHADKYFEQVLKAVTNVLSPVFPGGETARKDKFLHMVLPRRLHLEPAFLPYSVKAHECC
In short: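 Baculovirus-expressed polymerase (HCMV 0.2 nM, VZV 0.4 nM final) preincubated 30 min at room temperature with compound in pH 7.5 HEPES buffer; reaction started with 1.6 nM DIG-primer/template and nM dNTPs including biotin-dUTP, run 60 min at 37° C. Incorporation detected by AlphaLISA; IC50 from 4-parameter fit.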

[2] = molecular target: T2, varicella zoster virus DNA polymerase (Varicella-zoster virus, UniProt P09252); test: VZV polymerase assay (AlphaLISA, IC50); format: biochemical; details: polymerase assay of Example 190
T2 construct: made in house; host or cells: SF21 insect cells (baculovirus vector)
T2 sequence (P09252 whole entry): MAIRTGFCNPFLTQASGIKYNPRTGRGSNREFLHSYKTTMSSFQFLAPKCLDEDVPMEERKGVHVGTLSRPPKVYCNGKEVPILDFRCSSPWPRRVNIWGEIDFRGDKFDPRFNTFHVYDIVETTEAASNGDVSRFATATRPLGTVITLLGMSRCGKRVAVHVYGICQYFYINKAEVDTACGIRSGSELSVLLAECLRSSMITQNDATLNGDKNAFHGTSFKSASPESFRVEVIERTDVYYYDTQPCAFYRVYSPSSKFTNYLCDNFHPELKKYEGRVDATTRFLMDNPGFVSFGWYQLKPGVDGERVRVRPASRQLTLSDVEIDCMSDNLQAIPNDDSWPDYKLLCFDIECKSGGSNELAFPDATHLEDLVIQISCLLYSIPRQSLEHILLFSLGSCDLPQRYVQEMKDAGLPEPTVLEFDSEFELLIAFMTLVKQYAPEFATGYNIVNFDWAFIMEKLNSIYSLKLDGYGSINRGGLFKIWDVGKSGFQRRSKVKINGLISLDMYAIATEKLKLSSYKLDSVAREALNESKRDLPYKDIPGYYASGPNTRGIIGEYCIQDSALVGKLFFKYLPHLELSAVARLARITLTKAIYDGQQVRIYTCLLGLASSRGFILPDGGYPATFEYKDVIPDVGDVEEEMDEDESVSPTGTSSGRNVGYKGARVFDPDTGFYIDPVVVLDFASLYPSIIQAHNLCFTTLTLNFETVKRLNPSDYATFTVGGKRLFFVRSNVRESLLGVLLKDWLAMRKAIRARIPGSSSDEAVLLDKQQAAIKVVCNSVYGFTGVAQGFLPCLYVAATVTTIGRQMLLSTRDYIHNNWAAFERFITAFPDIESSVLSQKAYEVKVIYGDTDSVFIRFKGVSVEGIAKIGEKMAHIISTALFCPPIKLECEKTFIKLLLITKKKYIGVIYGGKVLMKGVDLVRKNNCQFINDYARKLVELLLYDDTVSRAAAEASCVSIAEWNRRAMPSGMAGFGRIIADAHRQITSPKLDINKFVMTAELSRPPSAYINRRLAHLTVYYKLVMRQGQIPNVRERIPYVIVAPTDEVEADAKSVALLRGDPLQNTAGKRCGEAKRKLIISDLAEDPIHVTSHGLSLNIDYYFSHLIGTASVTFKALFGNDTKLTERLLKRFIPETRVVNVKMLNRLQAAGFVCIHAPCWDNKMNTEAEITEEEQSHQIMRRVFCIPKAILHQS
Procedure: Human cytomegalovirus and varicella zoster virus DNA polymerases were expressed via baculovirus vector in SF21 cells and purified. Heterodimeric nucleic acid substrate used in the herpesvirus polymerase reactions was generated by annealing a 59-mer template to a 17-mer digoxigenin-labeled primer. Polymerase (HCMV final concentration of 0.2 nM; VZV final concentration of 0.4 nM) was combined with an inhibitor compound or DMSO in assay buffer (10 mM HEPES, pH 7.5, 25 mM KCl, 25 mM NaCl, 5 mM MgCl2, 5% glycerol, 0.67 mg/ml bovine serum albuminutes, and 1 mM tris(2-carboxyethyl)phosphine), and this mixture was pre-incubated for 30 minutes at room temperature in 384-well microtiter plates. The polymerization reaction was initiated by the addition of template/primer substrate (final concentration: 1.6 nM), and dNTPs (final concentration: 24 nM dCTP, 24 nMdGTP, 16 nM dATP, 16 nM dTTP, and 0.8 nM biotin-dUTP). After 60 minutes incubation at 37° C., reactions were terminated with quench buffer (25 mM HEPES pH 7.5, 100 mM NaCl, 0.25% Tween-20, 12 mM EDTA, and 1 mg/ml bovine serum albumin). Incorporation of biotinylated UTP was detected with 2.5-5 ug/ml anti-DIG AlphaLISA acceptor beads and 5-10 ug/ml streptavidin AlphaLISA donor beads (Perkin Elmer). Compound effects were normalized to the window defined by the controls (DMSO only and pre-quenched wells), and were fit using a 4-parameter algorithm to report an IC50.

[3] = tested on: HCMV Strain AD169 in MRC-5 cells; test: Viral qPCR assay HCMV (V0/V1, V2/V3), EC50; format: cell-based; details: read-out: HCMV Cell (EC50)
In short: (§1)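 Infected cells added to compounds (10-point 3-fold series), ~72 h at 37 °C, then lysed; viral genomes by TaqMan qPCR against plasmid standard, normalized to PPIA in V0/V1 only, EC50 from 4-parameter fit. HCMV AD169, 0.05-0.1 pfu/cell, ± 50% FBS; VZV 0.04-0.1 pfu/cell; HSV-1 F 0.0005-0.004 pfu/cell.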

[4] = tested on: VZV in MeWo or MRC5 cells; test: Viral qPCR assay VZV (V0/V1, V2/V3), EC50; format: cell-based; details: 10%
In short: as §1

[5] = tested on: HSV-1 Strain F in Vero or MRC5 cells; test: Viral qPCR assay HSV-1 (V0/V1, V2/V3), EC50; format: cell-based; details: 10%
In short: as §1

[6] = Human betaherpesvirus 5, AD169, MRC5, viral qPCR assay of Example 191
[7] = Human alphaherpesvirus 3, MeWo, MEWO cells, read-out: VZV Cell (EC50) MEWO 10%
[8] = Human alphaherpesvirus 1, Vero, VERO cells, read-out: HSV1 Cell (EC50) VERO 10%
[9] = Human alphaherpesvirus 3, MRC5, MRC5 cells, read-out: VZV Cell (EC50) MRC5 10%
[10] = Human alphaherpesvirus 1, MRC5, MRC5 cells, read-out: HSV1 Cell (EC50) MRC5 10%

Compound	IC50 [1]	IC50 [2]	EC50 ([3]; viral qPCR assay of Example 191)	EC50 ([4]; MRC5 cells, read-out: VZV Cell (EC50) MRC5 10%)	EC50 ([5]; VERO cells, read-out: HSV1 Cell (EC50) VERO 10%)	EC50 [3, 6]	EC50 [4, 7]	EC50 [5, 8]	EC50 [4, 9]	EC50 [5, 10]
O=C(NCc1ccc(Cl)cc1)c1cc(O[C@H]2CCN3C(=O)OC[C@@H]3C2)c(C2CC2CO)cn1 (single isomer, unassigned) [Compound 156-2]	8.03 nM	4.96 nM	600 nM	1180 nM	738 nM	–	–	–	–	–
O=C(NCc1ccc(Cl)cc1)c1cc(O[C@H]2CCN3C(=O)CCC[C@@H]3C2)c(-c2cnn(C(F)F)c2)cn1 (single isomer, unassigned) [Compound 161-1]	130 nM	47.3 nM	–	–	–	1330 nM	210 nM	461 nM	–	–
O=C(NCc1ccc(Cl)cc1)c1cc(O[C@H]2CCN3C(=O)OCC[C@@H]3C2)c(-c2cnn(C(F)F)c2)cn1 (single isomer, unassigned) [Compound 162-1]	3.08 nM	2.42 nM	–	–	–	88.6 nM	61.1 nM	77 nM	447 nM	107 nM
O=C(NCc1ccc(Cl)cc1)c1cc(O[C@H]2CCN3C(=O)OC[C@@H]3C2)c(-c2cnn(C(F)F)c2)cn1 [Compound 3]	10.3 nM	7.39 nM	–	–	–	180 nM	112 nM	70.9 nM	170 nM	127 nM
CC(=O)N1CCC(Oc2cc(C(=O)NCc3ccc(Cl)cc3)ncc2-c2cnn(C)c2)CC1 [Compound 6]	79 nM	30.8 nM	–	–	–	342 nM	84.5 nM	144 nM	–	–
O=C(NCc1ccc(Cl)cc1F)c1cc(O[C@H]2CCN3C(=O)OC[C@@H]3C2)c(-c2cnn(C(F)F)c2)cn1 [Compound 8]	26.2 nM	33.3 nM	–	–	–	440 nM	368 nM	259 nM	–	–
O=C(NCc1ccc(Cl)cc1)c1cc(O[C@H]2CCN3C(=O)OC[C@@H]3C2)c(-c2cnn(CC(F)(F)F)c2)cn1 [Compound 17]	23.1 nM	21 nM	–	–	–	380 nM	368 nM	426 nM	–	–
O=C(NCc1ccc(Cl)cc1)c1cc(O[C@H]2CCN3C(=O)OC[C@@H]3C2)c(-c2cnn(C3CC3)c2)cn1 [Compound 19]	17.4 nM	9.12 nM	–	–	–	214 nM	105 nM	316 nM	–	–
O=C(NCc1ccc(Cl)cc1)c1cc(O[C@H]2CCN3C(=O)OC[C@@H]3C2)c(-c2cnn3c2COCC3)cn1 [Compound 20]	16.4 nM	12.8 nM	–	–	–	132 nM	–	–	343 nM	235 nM
O=C(NCc1ccc(Cl)cc1)c1cc(O[C@H]2CCN3C(=O)OC[C@@H]3C2)c(-c2cnc(CO)s2)cn1 [Compound 22]	0.222 nM	1.12 nM	–	–	–	68.8 nM	–	224 nM	109 nM	150 nM
O=C(NCc1ccc(Cl)cc1)c1cc(O[C@H]2CCN3C(=O)OC[C@@H]3C2)c(-c2cnc(C3CC3)o2)cn1 [Compound 33]	6.24 nM	2.72 nM	–	–	–	121 nM	–	–	194 nM	125 nM
O=C(NCc1ccc(Cl)cc1)c1cc(O[C@H]2CCN3C(=O)OC[C@@H]3C2)c(-c2cnn(C3COC3)c2)cn1 [Compound 36]	4.44 nM	2.47 nM	–	–	–	172 nM	–	432 nM	175 nM	146 nM

Further lines, with some results ahead:

IC50 [1]	IC50 [2]	Compound	EC50 ([3]; viral qPCR assay of Example 191)	EC50 ([4]; MRC5 cells, read-out: VZV Cell (EC50) MRC5 10%)	EC50 ([5]; VERO cells, read-out: HSV1 Cell (EC50) VERO 10%)	EC50 [3, 6]	EC50 [4, 7]	EC50 [5, 8]	EC50 [4, 9]	EC50 [5, 10]
43.9 nM	40.9 nM	O=C(NCc1ccc(Cl)cc1)c1cc(O[C@H]2CCN3C(=O)OC[C@@H]3C2)c(-c2ccn(CC(F)(F)F)n2)cn1 [Compound 14]	–	–	–	563 nM	234 nM	319 nM	–	–
29.2 nM	19.9 nM	CC(C)n1ccc(-c2cnc(C(=O)NCc3ccc(Cl)cc3)cc2O[C@H]2CCN3C(=O)OC[C@@H]3C2)n1 [Compound 15]	–	–	–	176 nM	159 nM	160 nM	–	–
15.7 nM	10.5 nM	O=C(NCc1ccc(Cl)cc1)c1cc(O[C@H]2CCN3C(=O)OC[C@@H]3C2)c(-c2cc[nH]n2)cn1 [Compound 18]	–	–	–	120 nM	392 nM	836 nM	126 nM	194 nM
15.6 nM	13.9 nM	CC(C)n1cc(-c2cnc(C(=O)NCc3ccc(Cl)cc3)cc2O[C@H]2CCN3C(=O)OC[C@@H]3C2)cn1 [Compound 21]	–	–	–	282 nM	205 nM	206 nM	–	–
1.6 nM	≤ 0.444 nM	O=C(NCc1ccc(Cl)cc1)c1cc(O[C@H]2CCN3C(=O)OC[C@@H]3C2)c(-c2cnco2)cn1 [Compound 24]	–	–	–	98.7 nM	–	–	121 nM	56.4 nM
13.9 nM	13.9 nM	O=C(NCc1ccc(Cl)cc1)c1cc(O[C@H]2CCN3C(=O)OC[C@@H]3C2)c(-c2ccn(C(F)F)n2)cn1 [Compound 26]	–	–	–	280 nM	–	119 nM	4590 nM	≥ 80200 nM
14.1 nM	12.5 nM	O=C(NCc1ccc(Cl)cc1)c1cc(O[C@H]2CCN3C(=O)OC[C@@H]3C2)c(-c2cnn(CC(F)F)c2)cn1 [Compound 27]	–	–	–	138 nM	248 nM	300 nM	–	–
14.7 nM	12.7 nM	COCCn1ccc(-c2cnc(C(=O)NCc3ccc(Cl)cc3)cc2O[C@H]2CCN3C(=O)OC[C@@H]3C2)n1 [Compound 28]	–	–	–	325 nM	422 nM	327 nM	–	–
9.24 nM	7.85 nM	Cn1cc(-c2cnc(C(=O)NCc3ccc(Cl)cc3)cc2O[C@H]2CCN3C(=O)OC[C@@H]3C2)cn1 [Compound 29]	–	–	–	107 nM	51.6 nM	184 nM	109 nM	102 nM
9.86 nM	16.3 nM	Cn1ccc(-c2cnc(C(=O)NCc3ccc(Cl)cc3)cc2O[C@H]2CCN3C(=O)OC[C@@H]3C2)n1 [Compound 30]	–	–	–	116 nM	82 nM	132 nM	121 nM	78.2 nM
8.59 nM	6.54 nM	COCCn1cc(-c2cnc(C(=O)NCc3ccc(Cl)cc3)cc2O[C@H]2CCN3C(=O)OC[C@@H]3C2)cn1 [Compound 31]	–	–	–	116 nM	111 nM	309 nM	260 nM	224 nM
2.73 nM	0.55 nM	Cc1ncc(-c2cnc(C(=O)NCc3ccc(Cl)cc3)cc2O[C@H]2CCN3C(=O)OC[C@@H]3C2)o1 [Compound 32]	–	–	–	76.8 nM	–	–	106 nM	75 nM
6.9 nM	4.77 nM	O=C(NCc1ccc(Cl)cc1)c1cc(O[C@H]2CCN3C(=O)OC[C@@H]3C2)c(-c2cnn(CCO)c2)cn1 [Compound 34]	–	–	–	71.3 nM	190 nM	1240 nM	–	412 nM
8.15 nM	7.5 nM	CC(C)(O)Cn1cc(-c2cnc(C(=O)NCc3ccc(Cl)cc3)cc2O[C@H]2CCN3C(=O)OC[C@@H]3C2)cn1 [Compound 35]	–	–	–	396 nM	–	1000 nM	440 nM	205 nM
15.9 nM	6.03 nM	O=C(NCc1ccc(Cl)cc1)c1cc(O[C@H]2CCN3C(=O)OC[C@@H]3C2)c(-c2cscn2)cn1 [Compound 37]	–	–	–	115 nM	20.8 nM	35.6 nM	130 nM	100 nM
